Where “and” joins values, the source holds several entries; their conditions need not be identical. Equal values may be shown once. Read-outs that look alike come from different tables or passages of the source. One block for each compound: values may come before it.
Key:
[1] = cited from earlier work
OATP1B1 [2] = target: T1, OATP1B1 (Homo sapiens, UniProt Q9Y6L6); conditions: read-out: Apparent Km of transport by OATP1B1; cited from earlier work
T1 sequence (Q9Y6L6 1-691): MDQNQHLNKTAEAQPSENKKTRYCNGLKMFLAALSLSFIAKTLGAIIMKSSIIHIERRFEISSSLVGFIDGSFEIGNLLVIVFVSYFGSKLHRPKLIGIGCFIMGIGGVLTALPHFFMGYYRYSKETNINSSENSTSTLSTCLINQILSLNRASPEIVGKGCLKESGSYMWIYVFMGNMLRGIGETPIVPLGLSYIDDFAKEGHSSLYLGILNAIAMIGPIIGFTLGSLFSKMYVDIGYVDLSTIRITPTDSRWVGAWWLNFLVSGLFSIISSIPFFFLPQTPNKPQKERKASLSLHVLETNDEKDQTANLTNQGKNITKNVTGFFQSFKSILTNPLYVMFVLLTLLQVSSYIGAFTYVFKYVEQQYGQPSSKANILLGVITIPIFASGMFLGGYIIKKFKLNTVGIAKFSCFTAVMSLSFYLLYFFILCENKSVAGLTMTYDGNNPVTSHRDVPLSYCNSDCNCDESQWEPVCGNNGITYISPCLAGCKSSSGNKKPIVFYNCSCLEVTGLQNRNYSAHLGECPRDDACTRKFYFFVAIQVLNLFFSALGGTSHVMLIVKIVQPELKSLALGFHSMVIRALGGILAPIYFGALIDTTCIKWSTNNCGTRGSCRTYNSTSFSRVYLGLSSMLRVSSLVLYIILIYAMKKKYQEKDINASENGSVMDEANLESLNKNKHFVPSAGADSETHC

Caco-2 cell monolayers = conditions: cited from earlier work; for Reference Papp,caco-2 (7.4:7.4): ref Simcyp library value
P-gp = conditions: cited from earlier work
OATP1B1 [3] = target: T1, OATP1B1; test: Inhibition of OATP1B1-mediated [3H]-E217βG accumulation in HEK293-OATP1B1 cells; type: cell-based
Estimation of Iin,max = test: Estimation of Iin,max; design: species or system human; conditions: 960 mg; faFg = 1; Eq. 4
OATP1B1 [4] = target: T1, OATP1B1; conditions: 10 μM vemurafenib, aqueous buffer; cited from earlier work
[5] = cited from earlier work; remark: listed apart in the source
[6] = Vemurafenib PBPK model parameters; design: species or system human
OATP1B3 [7] = target: T2, OATP1B3 (Homo sapiens, UniProt Q9NPD5); test: Inhibition of OATP1B3-mediated [3H]-CCK-8 accumulation in HEK293-OATP1B3 cells; type: cell-based
T2 sequence (Q9NPD5 1-702): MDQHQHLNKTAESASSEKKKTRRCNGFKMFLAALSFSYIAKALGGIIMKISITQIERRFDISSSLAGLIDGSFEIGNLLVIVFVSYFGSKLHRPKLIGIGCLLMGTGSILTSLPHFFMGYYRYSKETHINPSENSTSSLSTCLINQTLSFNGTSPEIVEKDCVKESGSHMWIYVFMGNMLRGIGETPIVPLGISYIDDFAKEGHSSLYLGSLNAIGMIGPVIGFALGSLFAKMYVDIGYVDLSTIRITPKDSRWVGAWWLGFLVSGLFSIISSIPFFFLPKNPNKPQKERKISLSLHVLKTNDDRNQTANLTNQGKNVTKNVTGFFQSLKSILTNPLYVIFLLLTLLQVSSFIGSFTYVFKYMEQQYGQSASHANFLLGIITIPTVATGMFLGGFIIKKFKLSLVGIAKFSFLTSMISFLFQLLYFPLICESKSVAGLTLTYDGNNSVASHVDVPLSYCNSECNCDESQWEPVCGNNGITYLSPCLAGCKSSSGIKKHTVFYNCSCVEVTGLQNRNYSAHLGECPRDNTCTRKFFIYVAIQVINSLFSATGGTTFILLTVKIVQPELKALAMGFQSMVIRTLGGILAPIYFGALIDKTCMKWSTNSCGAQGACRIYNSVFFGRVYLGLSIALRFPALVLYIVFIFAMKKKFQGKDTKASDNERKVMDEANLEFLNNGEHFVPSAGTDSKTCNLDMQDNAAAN

OATP1B3 [8] = target: T2, OATP1B3; conditions: cited from earlier work
[9] = cited from earlier work; for Aqueous solubility: highest/maximum aqueous solubility
[10] = IC50,total against OATP1B1, 100% human plasma (pH 7.4), [3H]-E217βG 5 μM, 3 min, HEK293-OATP1B1
[11] = vemurafenib 150 μM in human plasma

Compound: C[C@]12CC[C@@H]3c4ccc(O)cc4CC[C@H]3[C@@H]1CC[C@@H]2O[C@@H]1O[C@H](C(=O)O)[C@@H](O)[C@H](O)[C@H]1O [E217βG, estradiol 17 β-D-glucuronide]
- fu (reported protein binding) [1]: 0.39
- Km (OATP1B1 [2]): ~8.3 µM

Compound: CN/C(=N/CCSCc1nc[nH]c1C)NC#N [cimetidine]
- Reference Papp,caco-2 (7.4:7.4) (Caco-2 cell monolayers): 4 10^−6 cm/s

Compound: C[C@H]1O[C@@H](O[C@H]2[C@@H](O)C[C@H](O[C@H]3[C@@H](O)C[C@H](O[C@H]4CC[C@@]5(C)[C@H](CC[C@@H]6[C@@H]5C[C@@H](O)[C@]5(C)[C@@H](C7=CC(=O)OC7)CC[C@]65O)C4)O[C@@H]3C)O[C@@H]2C)C[C@H](O)[C@@H]1O [digoxin]
- Mean terminal half-life (P-gp; single dose of digoxin alone): 35.0 h
- Mean terminal half-life (P-gp; single dose of digoxin co-administered with vemurafenib): 56.4 h

Compound: CNC(=C[N+](=O)[O-])NCCSCc1ccc(CN(C)C)o1 [ranitidine]
- Reference Papp,caco-2 (7.4:7.4) (Caco-2 cell monolayers): 1.2 10^−6 cm/s

- IC50 (OATP1B1 [3]; [10]): 2.1 µM
- IC50 (OATP1B1 [3]; read-out: Estimated IC50,unbound,OATP1B1, IC50,total 2.1 μM × fu,plasma 0.116): 0.24 µM
Compound: CO[C@H]1/C=C/O[C@@]2(C)Oc3c(C)c(O)c4c(O)c(c(/C=N/N5CCN(C)CC5)c(O)c4c3C2=O)NC(=O)/C(C)=C\C=C\[C@H](C)[C@H](O)[C@@H](C)[C@@H](O)[C@@H](C)[C@H](OC(C)=O)[C@@H]1C [rifampicin]

- Iin,max (estimated total maximum plasma concentration at the inlet to the liver) (Estimation of Iin,max): 132 µM and 132.5 µM
- Vd ([6]; human, oral, 960 mg): 0.9 L/kg
- CLR (renal clearance) ([6]; set from 0.97% of oral dose recovered in urine as parent): 0.01787 L/h
- IC50 (OATP1B1 [3]; [10]): 175 µM
- Effect on OATP1B1-mediated transport vs vehicle control (OATP1B1 [3]; vemurafenib 0.78 μM in HBSS buffer (pH 7.4), protein-free, E217βG […], 2 min): does not affect
- OATP1B1-mediated transport remaining (OATP1B1 [3]; [11]): 60.2 % of control
- OATP1B1-mediated [3H]-E217βG transport (OATP1B1 [3]; vemurafenib 500 μM in 100% human plasma, E217βG 5 μM, 3 min): 0.38 ± 0.1 fold of control
- IC50 (OATP1B3 [7]; IC50,total against OATP1B3, 100% human plasma (pH 7.4), [3H]-CCK-8 1 μM, 3 min, HEK293-OATP1B3): 231 µM
- IC50 at 3 min (OATP1B3 [7]; human, HEK293 cells over-expressing OATP1B3 (HEK293-OATP1B3), pH 7.4, probe [3H]-CCK-8 (1 μM), IC50,total against OATP1B3, 100% human plasma (pH 7.4), [3H]-CCK-8 1 μM, 3 min, HEK293-OATP1B3): 232 ± 26 µM
- Effect on OATP1B3-mediated transport vs vehicle control (OATP1B3 [7]; vemurafenib 0.78 μM in HBSS buffer (pH 7.4), protein-free, CCK-8 1 μM, 3 min): does not affect
- OATP1B3-mediated transport remaining (OATP1B3 [7]; [11]): 72.1 % of control
- OATP1B3-mediated [3H]-CCK-8 transport (OATP1B3 [7]; vemurafenib 500 μM in 100% human plasma, CCK-8 1 μM, 3 min): 0.13 ± 0.04 fold of control
Compound: CCCS(=O)(=O)Nc1ccc(F)c(C(=O)c2c[nH]c3ncc(-c4ccc(Cl)cc4)cc23)c1F [vemurafenib]
- Blood-to-plasma ratio (RB) ([1]; [14C]-vemurafenib): 0.58
- Protein bound in human plasma [1]: > 99%
- Unbound fraction in human plasma ([1]; independent of concentration 0.5–100 μM): 0.0014
- Decrease of OATP1B1-mediated [3H]-E217βG transport (OATP1B1 [4]): ~ 75% and 75%
- Time to steady state ([5]; 960 mg BID multiple dosing): 15 to 21 days
- AUC0–8 h accumulation, day 15 vs day 1 ([5]; 960 mg BID): 23.2 ± 16.5 fold
- CLpo [5]: 2.67 (53.5) L/h, CV%
- Median accumulation ratio [5]: 7.36
- Oral dose recovered in urine as parent [5]: 0.97%
- Time to steady state for most patients [5]: ≤ 22 days
- ka, absorption rate constant ([5]; oral, population pharmacokinetic analysis): 0.19 h⁻¹
- Uptake in OATP1B3-overexpressing cells vs vehicle control cells (OATP1B3 [8]): ~ 1.5 fold
- pKa (first) ([9]; diprotic acid): 7.9
- pKa (second) ([9]; diprotic acid): 11.1
- Aqueous solubility [9]: 0.78 µM
- Aqueous solubility ([9]; listed as Vemurafenib): ~ 0.78 μM
- Log PO:W ([9]; neutral species octanol:buffer partition coefficient): 3
- Passive permeability coefficient in Caco-2 cell monolayers (Caco-2 cell monolayers; ranitidine as reference compound): 2.9 10^−6 cm/s

Compound: Cholecystokinin 8 [CCK-8]
- Km (OATP1B3 [8]): ~3.8 µM

Reference: PMC7750294 (Journal of pharmaceutical sciences, 2020)
